Measured values: article PMC3914206

Tests used:
Type in all cases: binding
Conditions in all cases: Compound Concentration 10 µM
panel of 442 kinases [1] = target: T1, panel of 442 kinases (Homo sapiens, UniProt Q13627)
T1 construct: purchased KINOMEscan
From the text: (§1) We assessed the selectivity of members of this scaffold using the KINOMEscan methodology across a near comprehensive panel of 442 kinases [[18,27]].

panel of 442 kinases [2] = target: T2, panel of 442 kinases (Homo sapiens, UniProt Q08881)
T2 construct: purchased KINOMEscan
T2 sequence (Q08881 1-620): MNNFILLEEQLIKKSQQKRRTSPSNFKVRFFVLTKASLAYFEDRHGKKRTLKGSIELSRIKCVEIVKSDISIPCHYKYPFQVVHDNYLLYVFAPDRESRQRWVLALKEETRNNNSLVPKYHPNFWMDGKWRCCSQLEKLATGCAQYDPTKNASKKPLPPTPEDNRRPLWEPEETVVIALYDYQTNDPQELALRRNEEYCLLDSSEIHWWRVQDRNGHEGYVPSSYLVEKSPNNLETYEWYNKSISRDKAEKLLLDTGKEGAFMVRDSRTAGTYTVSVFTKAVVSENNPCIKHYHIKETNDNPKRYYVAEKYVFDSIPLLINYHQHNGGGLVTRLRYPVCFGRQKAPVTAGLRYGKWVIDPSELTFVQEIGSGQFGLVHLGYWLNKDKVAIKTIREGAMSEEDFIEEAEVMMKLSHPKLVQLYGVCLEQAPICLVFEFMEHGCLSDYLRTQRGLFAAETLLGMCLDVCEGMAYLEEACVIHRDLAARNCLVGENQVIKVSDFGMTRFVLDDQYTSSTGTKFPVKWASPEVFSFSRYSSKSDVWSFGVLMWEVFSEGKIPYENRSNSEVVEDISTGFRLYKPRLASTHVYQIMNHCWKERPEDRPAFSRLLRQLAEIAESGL
From the text: as §1

panel of 442 kinases [3] = target: T3, panel of 442 kinases (Homo sapiens, UniProt Q13177)
T3 construct: purchased KINOMEscan
From the text: as §1

T3 sequence (Q13177 whole entry): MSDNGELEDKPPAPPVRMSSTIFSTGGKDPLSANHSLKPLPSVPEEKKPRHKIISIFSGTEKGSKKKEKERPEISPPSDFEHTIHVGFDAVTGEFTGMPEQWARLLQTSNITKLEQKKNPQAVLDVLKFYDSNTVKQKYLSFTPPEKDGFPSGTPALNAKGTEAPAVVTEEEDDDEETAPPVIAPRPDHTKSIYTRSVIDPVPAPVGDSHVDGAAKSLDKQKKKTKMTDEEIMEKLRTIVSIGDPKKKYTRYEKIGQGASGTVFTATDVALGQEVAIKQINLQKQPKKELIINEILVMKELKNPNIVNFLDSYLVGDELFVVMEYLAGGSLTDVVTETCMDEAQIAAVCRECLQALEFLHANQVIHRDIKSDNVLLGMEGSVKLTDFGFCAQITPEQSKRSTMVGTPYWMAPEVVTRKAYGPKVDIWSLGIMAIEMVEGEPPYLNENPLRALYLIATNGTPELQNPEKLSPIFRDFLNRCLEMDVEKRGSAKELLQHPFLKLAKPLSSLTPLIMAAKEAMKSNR

SMILES	KINOMEscan: DYRK1A (panel of 442 kinases [1])	KINOMEscan: ITK (panel of 442 kinases [2])	KINOMEscan: PAK2 (panel of 442 kinases [3])
COc1cc(C(=O)N2CCC(N3CCN(C)CC3)CC2)ccc1Nc1ncc2c(n1)N(C)c1ccccc1C(=O)N2C [15 (LRRK2-IN-1)]	99	82	65
COc1cc(C(=O)N2CCC(N3CCN(C)CC3)CC2)ccc1Nc1ncc2c(n1)N1CCc3cccc(c31)C(=O)N2C [Compound 24]	67		
COc1cc(C(=O)N2CCC(N3CCN(C)CC3)CC2)ccc1Nc1ncc2c(n1)N(C1CCCC1)c1ccccc1C(=O)N2C [Compound 25, 11-cyclopentyl-2-((2-methoxy-4-(4-(4-methylpiperazin-1-yl)piperidine-1-carbonyl)phenyl)amino)-5-methyl-5H-benzo[e]pyrimido[5,4-b][1,4]diazepin-6(11H)-one]	100	100	90
CCOc1cc(C(=O)N2CCC(N3CCN(C)CC3)CC2)ccc1Nc1ncc2c(n1)N(C1CCCC1)c1ccccc1C(=O)N2C [Compound 26]	88	100	92
